Experimental data taken from patent publication US20260001888A1, “PYRAZOLOPYRIMIDINE PDE9 INHIBITORS” (Merck Sharp & Dohme LLC, priority 2018, published 2026).

Target: Human PDE9 (PDE9A2) (Homo sapiens (Human), UniProt O76083)
Test: PDE9 IMAP fluorescence polarization (FP) inhibition assay
Format: biochemical
Details: apparent inhibition constant; human PDE9A2, FAM-cGMP substrate 50 nM, room temperature
In short: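 N-terminal GST-tagged full-length PDE9A2 membrane prep (0.5 ng/ml final) preincubated 30 min with compound at room temperature, then 50 nM FAM-cGMP added for 60 min; IMAP binding reagent stops reaction, FP read after 1 h. Controls: known PDE9 inhibitor (100%), 1% DMSO (0%). KI from four-parameter fit.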

Chain of Human PDE9 (PDE9A2) (O76083 other isoform, or with tags, fused parts or gaps): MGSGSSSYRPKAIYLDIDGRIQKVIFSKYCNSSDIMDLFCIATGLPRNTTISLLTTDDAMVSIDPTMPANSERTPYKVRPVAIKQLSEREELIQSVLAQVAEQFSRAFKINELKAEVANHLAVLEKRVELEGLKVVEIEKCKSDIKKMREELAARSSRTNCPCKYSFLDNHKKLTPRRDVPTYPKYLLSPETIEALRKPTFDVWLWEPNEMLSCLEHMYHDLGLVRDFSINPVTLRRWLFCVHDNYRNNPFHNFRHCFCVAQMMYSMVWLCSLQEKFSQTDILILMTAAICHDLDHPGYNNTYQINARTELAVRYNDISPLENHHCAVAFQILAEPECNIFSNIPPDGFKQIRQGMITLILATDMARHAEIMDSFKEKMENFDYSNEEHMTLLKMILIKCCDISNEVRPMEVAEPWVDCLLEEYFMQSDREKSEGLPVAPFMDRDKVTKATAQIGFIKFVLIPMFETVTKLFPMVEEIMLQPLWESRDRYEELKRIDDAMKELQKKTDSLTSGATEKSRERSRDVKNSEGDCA

Structure (SMILES)	Ki
CCC(Cc1nc2c(c(C#N)nn2C(C)c2ccc(C(F)(F)F)nc2)c(=O)[nH]1)c1ncccn1 (single isomer, unassigned) [Example 89, 4-oxo-6-(2-(pyrimidin-2-yl)butyl)-1-(1-(6-(trifluoromethyl)pyridin-3-yl)ethyl)-4,5-dihydro-1H-pyrazolo[3,4-d]pyrimidine-3-carbonitrile]	0.24 nM
CCC(Cc1nc2c(c(C#N)nn2C(C)c2ccc(C(F)(F)F)nc2)c(=O)[nH]1)c1ncccn1 (single isomer, unassigned) [Example 90, 4-oxo-6-(2-(pyrimidin-2-yl)butyl)-1-(1-(6-(trifluoromethyl)pyridin-3-yl)ethyl)-4,5-dihydro-1H-pyrazolo[3,4-d]pyrimidine-3-carbonitrile]	28 nM
